We go through twelve molecules from patent publication US20260274814A1, “THIENYL COMPOUNDS FOR THE TREATMENT OF A CENTRAL NERVOUS SYSTEM DISEASE OR DISORDER” (Coreterra Therapeutics, Inc., priority 2023, published 2026).

For the assay, the system named is mice. The assay is described as follows: Neuropharmacological Assay (SmartCube): automated behavioral signature of compound-treated mice compared with a database of reference drug classes. The format is in vivo. Conditions: for MED: minimal effective dose: dose having 45% or more total activity in SmartCube; for MED / MED (minimal effective dose) / minimal effective dose: i.p., that dose is shown; for MED (minimal effective dose) / minimal effective dose: dose having 45% or more total activity in SmartCube; for minimal effective dose: Mus musculus, ip, read-out: MED (minimal effective dose). The essentials: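 Mice dosed i.p. 15 min before SmartCube testing, with compound in N-methyl-2-pyrrolidone/polyethylene glycol/propylene glycol. Video-captured behaviour is compared with a reference-drug signature database to give per-class probabilities, reported at 3.0 mg/kg. MED, from doses usually 0.3–10 mg/kg, is the lowest dose giving ≥45% total activity.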

Where [1] appears, read: SmartCube class probability, 3.0 mg/kg i.p., 15 min before test.
The mark [2] stands for this setting: SmartCube class probability, 3.0 mg/kg i.p., 15 min before test, hydrochloride, 3 mg/kg.
Setting [3] is: probability that activity matches this class of agents, 3.0 mg/kg i.p., 15 min before test.
The mark [4] stands for this setting: probability that activity matches this class of agents, 3.0 mg/kg i.p., 15 min before test, hydrochloride, 3 mg/kg.
The mark [5] stands for this setting: SmartCube probability class, 3.0 mg/kg dose, i.p. 15 min before the behavioral test.
[6] abbreviates: if only one dose was tested, hydrochloride.

Structures can show the parent of a compound that is named as a salt.

For `CNC1CCc2scc(C3CCC3)c2C1` (single isomer, unassigned) [Compound 268, 3-cyclobutyl-N-methyl-4,5,6,7-tetrahydrobenzothiophen-5-amine hydrochloride], under setting [1], the AD result is listed as “ND (^ <4%)”, the AG result is “ND (^ <4%)”, the AN entry is “ND (^ <4%)” and the AP entry is given as “ND (^ <4%)”. For the same molecule, under setting [1], the AX result is “ND (^ <4%)”, the CE entry is reported as “ND (^ <4%)”, the HL result is recorded as “ND (^ <4%)” and the MS entry was “ND (^ <4%)”. For the same molecule, under setting [1], the PS result is “ND (^ <4%)” and the SH result is listed as “ND (^ <4%)”. Also, the UK result under setting [2] was “ND (^ <4%)”. The MED (if only one dose tested) is reported as over 3 mpk.
`CNC1CCc2cc(C#N)sc2C1` (single isomer, unassigned) [Compound 37, 6-(methylamino)-4,5,6,7-tetrahydrobenzothiophene-2-carbonitrile hydrochloride]: for the setting “if only one dose was tested”, the “MED (minimal effective dose)” value is recorded as 3.0 mpk. In addition, under setting [3], the AD entry is recorded as “ND (^ <4%)”, the AG entry is on record as “ND (^ <4%)”, the AN result was “ND (^ <4%)” and the AX entry is “ND (^ <4%)”. Also, under setting [3], the CE entry is reported as “ND (^ <4%)”, the HL entry is reported as “ND (^ <4%)”, the MS entry is recorded as “ND (^ <4%)” and the PS result is recorded as “ND (^ <4%)”. In addition, the SH result under setting [3] is reported as “ND (^ <4%)”. Under setting [4], the AP entry is listed as “ND (^ <4%)” and the UK result is recorded as “+++ (≥49%)”.
As for `CCC1(NC)CCc2sccc2C1` (single isomer, unassigned) [Compound 292, 5-ethyl-N-methyl-6,7-dihydro-4H-benzothiophen-5-amine hydrochloride], under setting [5], the AD result is “ND (^ <4%)”, the AG entry is “ND (^ <4%)”, the AN entry is given as “ND (^ <4%)” and the AP result is reported as “ND (^ <4%)”. Besides, under setting [5], the AX entry is reported as “ND (^ <4%)”, the CE result is “ND (^ <4%)”, the HL entry was “ND (^ <4%)” and the MS entry is reported as “ND (^ <4%)”. Besides, under setting [5], the PS result is listed as “ND (^ <4%)” and the SH result is “ND (^ <4%)”. The UK entry (SmartCube probability class, 3.0 mg/kg dose, i.p. 15 min before the behavioral test, hydrochloride, 3 mg/kg) is listed as “++ (≥24%)”. Further, for the setting “if only one dose was tested”, the MED is over 3 mpk.
By minimal effective dose is commonly meant the smallest amount tested that counted as effective. Take `Cl.FC1(F)CC(NC2CCc3cscc3C2)C1` (single isomer, unassigned) [Compound 126, N-(3,3-difluorocyclobutyl)-4,5,6,7-tetrahydro-2-benzothiophen-5-amine hydrochloride]: the minimal effective dose (if only one dose was tested) was over 30 mg/kg. Under setting [3], the AD result is “ND (^ <4%)”, the AG entry is given as “ND (^ <4%)”, the AN result is listed as “ND (^ <4%)” and the AP entry is “ND (^ <4%)”. Under setting [3], the AX result is listed as “ND (^ <4%)”, the CE result is “ND (^ <4%)”, the HL entry is given as “ND (^ <4%)” and the MS entry is “ND (^ <4%)”. For the same molecule, under setting [3], the PS result is “ND (^ <4%)”, the SH result is reported as “ND (^ <4%)” and the UK entry is reported as “ND (^ <4%)”.
Consider `CNC1COc2cscc2C1` (single isomer, unassigned) [Compound 51, N-methyl-3,4-dihydro-2H-thieno[3,4-b]pyran-3-amine hydrochloride], for which the “MED (minimal effective dose)” value under setting [6] was over 10 mpk. Under setting [3], the AD entry is “ND (^ <4%)”, the AG entry is listed as “ND (^ <4%)”, the AN entry was “ND (^ <4%)” and the CE result is listed as “ND (^ <4%)”. Moreover, under setting [3], the HL result is given as “ND (^ <4%)”, the MS entry was “ND (^ <4%)”, the PS entry is “ND (^ <4%)” and the SH result is “ND (^ <4%)”. In addition, under setting [3], the UK result is on record as “+ (≥4%)”. Also, under setting [4], the AP result is listed as “ND (^ <4%)” and the AX entry is recorded as “ND (^ <4%)”.
On to `CNC1CCc2csc(C#N)c2C1` (stereo not drawn) [Compound 93, 6-(methylamino)-4,5,6,7-tetrahydro-2-benzothiophene-1-carbonitrile hydrochloride], for which the minimal effective dose (if only one dose was tested) was found to be 0.1 mg/kg. Moreover, under setting [3], the AD result is on record as “ND (^ <4%)”, the AG result was “ND (^ <4%)”, the AN result is “ND (^ <4%)” and the AP entry is “++++ (≥74%)”. Further, under setting [3], the AX entry is “ND (^ <4%)”, the CE entry was “ND (^ <4%)”, the HL entry is “ND (^ <4%)” and the MS result is given as “ND (^ <4%)”. Also, under setting [3], the PS entry is listed as “ND (^ <4%)”, the SH entry was “ND (^ <4%)” and the UK entry is listed as “ND (^ <4%)”.
On to `CNC1CCc2scc(Cl)c2C1` (single isomer, unassigned) [Compound 131, 3-chloro-N-methyl-4,5,6,7-tetrahydrobenzothiophen-5-amine hydrochloride], for which the minimal effective dose (if only one dose was tested) turned out to be 3 mg/kg. Besides, under setting [3], the AG result is given as “ND (^ <4%)”, the AN entry is recorded as “ND (^ <4%)”, the AX result is reported as “ND (^ <4%)” and the CE entry was “ND (^ <4%)”. For the same molecule, under setting [3], the HL result was “ND (^ <4%)” and the SH result was “ND (^ <4%)”. Besides, under setting [4], the AD entry is reported as “+ (≥4%)”, the AP result was “++ (≥24%)”, the MS entry was “+ (≥4%)” and the PS entry is reported as “ND (^ <4%)”. Further, under setting [4], the UK entry is reported as “ND (^ <4%)”.
For `Cc1scc2c1CC(N)CC2` (single isomer, unassigned) [Compound 163, 3-methyl-4,5,6,7-tetrahydro-2-benzothiophen-5-amine hydrochloride], under setting [1], the AD result is “ND (^ <4%)”, the AG entry is “ND (^ <4%)”, the AN entry is listed as “ND (^ <4%)” and the AP entry was “ND (^ <4%)”. Further, under setting [1], the CE result is “ND (^ <4%)”, the HL result was “ND (^ <4%)”, the MS result is listed as “ND (^ <4%)” and the PS entry is listed as “ND (^ <4%)”. Also, under setting [1], the SH result was “ND (^ <4%)” and the UK result is given as “+ (≥4%)”. In addition, the AX entry under setting [2] is listed as “ND (^ <4%)”. For the setting “if only one dose tested, hydrochloride”, this molecule registered an MED of over 3 mpk.
As to `NC1CCc2scc(C(F)(F)F)c2C1` (single isomer, unassigned) [Compound 255, 3-(trifluoromethyl)-4,5,6,7-tetrahydrobenzothiophen-5-amine hydrochloride], under setting [1], the AD entry is recorded as “ND (^ <4%)”, the AG result was “ND (^ <4%)”, the AN entry was “ND (^ <4%)” and the AP result was “ND (^ <4%)”. Under setting [1], the AX result is “ND (^ <4%)”, the CE result is listed as “ND (^ <4%)”, the HL result is on record as “ND (^ <4%)” and the MS entry is given as “ND (^ <4%)”. Moreover, under setting [1], the PS entry is “ND (^ <4%)” and the SH entry was “ND (^ <4%)”. Further, the UK entry under setting [2] was “ND (^ <4%)”. Further, the MED (if only one dose tested) is on record as over 3 mpk.
With `CNC1CCc2csc(C(F)(F)F)c2C1` (single isomer, unassigned) [Compound 62, N-methyl-3-(trifluoromethyl)-4,5,6,7-tetrahydro-2-benzothiophen-5-amine hydrochloride], the “MED (minimal effective dose)” value under setting [6] is 1 mpk. Under setting [3], the AG entry is reported as “ND (^ <4%)”, the AN entry is recorded as “ND (^ <4%)”, the AX entry was “ND (^ <4%)” and the CE entry is “ND (^ <4%)”. Moreover, under setting [3], the HL result is “ND (^ <4%)”, the MS entry is listed as “ND (^ <4%)”, the PS entry is recorded as “ND (^ <4%)” and the SH entry is given as “ND (^ <4%)”. Moreover, the UK result under setting [3] is given as “ND (^ <4%)”. Besides, under setting [4], the AD result is given as “++++ (≥74%)” and the AP result is listed as “+ (≥4%)”.
With `CNC1COc2ccsc2C1` (single isomer, unassigned) [Compound 46, N-methyl-6,7-dihydro-5H-thieno[3,2-b]pyran-6-amine hydrochloride], under setting [6], the “MED (minimal effective dose)” value came to 10 mpk. Under setting [3], the AG entry is “ND (^ <4%)”, the AN entry is on record as “ND (^ <4%)”, the AP entry is listed as “ND (^ <4%)” and the CE result was “ND (^ <4%)”. Under setting [3], the HL result is “ND (^ <4%)”, the MS entry is “ND (^ <4%)”, the PS entry was “ND (^ <4%)” and the SH entry is “ND (^ <4%)”. Also, under setting [4], the AD entry is given as “ND (^ <4%)”, the AX result is “+ (≥4%)” and the UK entry was “++ (≥24%)”.
Turning to `CNC1Cc2ccsc2C1.Cl` (single isomer, unassigned) [Compound 19, N-methyl-5,6-dihydro-4H-cyclopenta[b]thiophen-5-amine hydrochloride], the “MED (minimal effective dose)” value under setting [6] was determined as 3.0 mpk. Further, under setting [3], the AG entry is given as “ND (^ <4%)”, the AN result was “ND (^ <4%)”, the AP result is “+ (≥4%)” and the HL entry is listed as “ND (^ <4%)”. Also, under setting [3], the MS entry is “ND (^ <4%)”, the PS entry is recorded as “ND (^ <4%)” and the SH entry is given as “ND (^ <4%)”. For the same molecule, under setting [4], the AD result is “++ (≥24%)”, the AX entry was “++ (≥24%)”, the CE result was “ND (^ <4%)” and the UK entry is reported as “+ (≥4%)”.
